Consider seven molecules from patent EP1057825A1, “ISOFLAVANE DERIVATIVES AND IMMUNOPOTENTIATING COMPOSITIONS CONTAINING THE SAME” (SHIONOGI & CO., LTD., priority 1998, dated 1999).

One assay has as its system mouse bone marrow cells. Put plainly: Metabolism promoting action on mouse bone marrow cells (mitochondrial metabolism activity, MTT reduction method). In kind it is cell-based, BALB/c mouse. The following applies: 5 days, magnitude of metabolism, no test compound = one; for activity at 0.39 µg/mL / activity at 0.78 µg/mL / activity at 1.56 µg/mL / activity at 3.13 µg/mL / activity at 6.25 µg/mL / activity at 12.5 µg/mL: Mus musculus, Bone marrow cell, 120 h. An excerpt:
The presence of an immunoactivating action can be determined if the magnitude of metabolism exceeds one, where the cellular metabolism of cells not having test compounds added thereto is defined as one.

Another assay has as its system mouse spleen cells. Put plainly: Action on the blastogenesis of mouse spleen cells (ConA-stimulated, MTT reduction method). The following applies: ConA 1 µg/ml, 3 days, rate against no test compound = one; for activity at 0.1 µg/mL / activity at 0.2 µg/mL / activity at 0.39 µg/mL / activity at 0.78 µg/mL / activity at 1.56 µg/mL / activity at 3.13 µg/mL / activity at 6.25 µg/mL: Mus musculus, 72 h. The format is cell-based, BALB/c mouse. Here is the method:
Serial two-fold dilutions (100 µl/well) with 10% FBS of test compounds which are dissolved in a dimethyl sulfoxide (DMSO) solution are obtained on a 96-well microplate, and used as test samples.
The spleen of a BALB/c mouse is aseptically isolated, and gently ground on a wire mesh with dropwise addition of sterilzed saline. The filtrate is passed through a nylon mesh (Becton Dickinson; pore size: 70 µm), thereby preparing a unicellular suspension.
After being washed twice with sterilized saline, the spleen cells are suspended in RPMI1460 containing 10% FCS and containing 1 µg/ml of concanavalin A (abbreviated as ConA: Sigma, U.S.) as well as an antibiotic (Sigma: Antibiotic Antimycotic), and dispensed into a 96-well microplate, in which 100 µl each of diluted test samples are previously dispensed, in amounts of 3 × 10^5 cells/100 µl/well.
Thereafter, culturing is carried out under 5% carbon dioxide gas at 37°C for 3 days, and then the blastogenesis of lymphocytes is measured by an MTT reduction method [Mosmann T, Journal of Immunological Method, vol. 65, p. 55, 1983]. The blastogenesis rate can be quantitated as a rate against the blastogenesis of those not having test compounds added thereto, which is defined as one. The presence of an immunoactivating action can be determined if the blastogenesis rate exceeds one.
Serial two-fold dilutions (100 µl/well) with RPMI1640 (Nikken Biomedical Laboratory) containing 10% FBS (bovine fetal serum: Dainippon Pharmaceutical Co., Ltd.) of test compounds which were dissoloved in a dimethylsulfoxide (DMSO) solution were obtained on a 96-well microplate, and used as test samples.
The spleen of a BALB/c mouse (a 6 week-old female) was aseptically isolated, and gently ground on a wire mesh with dropwise addition of sterilzed saline. The filtrate was passed through a nylon mesh (Becton Dickinson; pore size: 70 µm), thereby preparing a unicellular suspension.
After being washed twice with sterilized saline, the spleen cells were suspended in RPMI1460 containing 10% FCS and containing 1 µg/ml of concanavalin A (abbreviated as ConA: Sigma, U.S.) as well as an antibiotic (Sigma: Antibiotic Antimycotic), and dispensed into a 96-well microplate, in which 100 µl each of diluted test samples had previously been dispensed, in amounts of 3×10^5 cells/100 µl/well.
Thereafter, culturing was carried out under 5% carbon dioxide gas at 37°C for 3 days, and then the blastogenesis of lymphocytes was measured by an MTT reduction method [Mosmann T, Journal of Immunological Method, vol. 65, p. 55, 1983]. The results are shown in [Table 4].
In general terms: Tetrazolium assays rely on reduction of a dye to a coloured formazan, in cell work by metabolically active cells.

Where [1] appears, read: Test compound concentration 0.39 µg/ml.
[2] abbreviates: Test compound concentration 0.78 µg/ml.
[3] abbreviates: Test compound concentration 1.56 µg/ml.
Setting [4] is: Test compound concentration 3.13 µg/ml.
Setting [5] is: Test compound concentration 6.25 µg/ml.
Where [6] appears, read: Test compound concentration 12.5 µg/ml.
The mark [7] stands for this setting: concentration of additions in medium 0.1 μg/ml.
[8] abbreviates: concentration of additions in medium 0.2 μg/ml.
[9] abbreviates: concentration of additions in medium 0.39 μg/ml.
Setting [10] is: concentration of additions in medium 0.78 μg/ml.
The mark [11] stands for this setting: concentration of additions in medium 1.56 μg/ml.
Where [12] appears, read: concentration of additions in medium 3.13 μg/ml.
[13] abbreviates: concentration of additions in medium 6.25 μg/ml.

Turning to “3-(2,4-dimethoxy-3-(3-methyl-2-butenyl)phenyl)-3,4-dihydro-5-hydroxy-7-methoxy-6-(3-methyl-2- butenyl)-2H-1-benzopyran [A-6]”, the “metabolism activity of mouse bone marrow cells” value with mouse bone marrow cells (setting [1]) stood at 0.97; with mouse bone marrow cells (setting [2]), 1.05; with mouse bone marrow cells (setting [3]), 1.20; in the assay on mouse bone marrow cells (setting [4]) it was 1.52; with mouse bone marrow cells (setting [5]) it was 0.77; in the assay on mouse bone marrow cells (setting [6]) it was 0.51. Further, the blastogenesis rate in the assay with mouse spleen cells (setting [7]) was 1.12; in the assay with mouse spleen cells (setting [8]), 1.05; in the assay with mouse spleen cells (setting [9]), 1.12; with mouse spleen cells (setting [10]) it was 1.26; in the assay on mouse spleen cells (setting [11]), 1.55; with mouse spleen cells (setting [12]), 2.46. The molecule also had a blastogenesis rate in the assay with mouse spleen cells (setting [13]) of 3.28.
`COc1c(CC=C(C)C)c(O)cc2c1CC(c1ccc(O)c(CC=C(C)C)c1O)CO2` (stereo not shown) [A-1, 4-[3,4-dihydro-7-hydroxy-5-methoxy-6-(3-methyl-2-butenyl)-2H-1-benzopyran-3-yl]-2-(3-methyl-2-butenyl)-1,3-benzenediol]: the results for the activity at 0.39 µg/mL in the assay with mouse bone marrow cells (setting [1]) and in the assay on mouse spleen cells (setting [9]) were 114% and 129%, respectively. Besides, the activity at 0.78 µg/mL in the assay on mouse bone marrow cells (setting [2]) was found to be 101%; in the assay with mouse spleen cells (setting [10]), 157%. Moreover, the activity at 1.56 µg/mL with mouse bone marrow cells (setting [3]) is 93%; with mouse spleen cells (setting [11]) it was 188%. Moreover, the values for the activity at 3.13 µg/mL in the assay on mouse bone marrow cells (setting [4]) and in the assay on mouse spleen cells (setting [12]) were 127% and 225%, respectively. Moreover, the activity at 6.25 µg/mL with mouse bone marrow cells (setting [5]) came out at 198%; in the assay with mouse spleen cells (setting [13]) it was 171%. For the same molecule, in the assay with mouse bone marrow cells (setting [6]), the activity at 12.5 µg/mL came to 58%. Moreover, in the assay on mouse spleen cells (setting [7]), the activity at 0.1 µg/mL is 113%. Also, the activity at 0.2 µg/mL in the assay with mouse spleen cells (setting [8]) was determined as 109%.
Consider `COc1cc2c(c(OC)c1CC=C(C)C)CC(c1ccc(O)c(CC=C(C)C)c1O)CO2` (stereo not shown) [A-2, 4-[3,4-dihydro-5,7-dimethoxy-6-(3-methyl-2-butenyl)-2H-1-benzopyran-3-yl]-2-(3-methyl-2-butenyl)-1,3-benzenediol], for which, in the assay on mouse spleen cells (setting [7]), the activity at 0.1 µg/mL was found to be 117%. Further, the activity at 0.2 µg/mL in the assay with mouse spleen cells (setting [8]) is 112%. Further, the activity at 0.39 µg/mL in the assay on mouse spleen cells (setting [9]) worked out at 137%. In addition, in the assay on mouse spleen cells (setting [10]), the activity at 0.78 µg/mL stood at 184%. The activity at 1.56 µg/mL with mouse spleen cells (setting [11]) turned out to be 234%. The activity at 3.13 µg/mL with mouse spleen cells (setting [12]) worked out at 121%. Moreover, in the assay on mouse spleen cells (setting [13]), the activity at 6.25 µg/mL is 26%.
Consider `COc1ccc(C2COc3cc(OC)c(CC=C(C)C)c(OC)c3C2)c(OC)c1CC=C(C)C` (stereo not shown) [A-3, 3-(2,4-dimethoxy-3-(3-methyl-2-butenyl)phenyl)-3,4-dihydro-5,7-dimethoxy-6-(3-methyl-2-butenyl)-2H-1-benzopyran], for which the activity at 0.39 µg/mL in the assay on mouse bone marrow cells (setting [1]) was determined as 111%; in the assay with mouse spleen cells (setting [9]), 88%. Moreover, the activity at 0.78 µg/mL is 108% with mouse bone marrow cells (setting [2]) and 79% in the assay with mouse spleen cells (setting [10]). Moreover, the activity at 1.56 µg/mL came to 114% in the assay on mouse bone marrow cells (setting [3]) and 83% with mouse spleen cells (setting [11]). Besides, the activity at 3.13 µg/mL in the assay with mouse bone marrow cells (setting [4]) was determined as 114%; in the assay with mouse spleen cells (setting [12]) it was 120%. The activity at 6.25 µg/mL turned out to be 111% with mouse bone marrow cells (setting [5]) and 246% in the assay with mouse spleen cells (setting [13]). The activity at 12.5 µg/mL with mouse bone marrow cells (setting [6]) is 62%. Also, the activity at 0.1 µg/mL in the assay on mouse spleen cells (setting [7]) turned out to be 98%. In addition, the activity at 0.2 µg/mL in the assay on mouse spleen cells (setting [8]) turned out to be 88%.
As to `COc1ccc(C2COc3cc(OC)c(CC=C(C)C)c(OC)c3C2)c(O)c1CC=C(C)C` (stereo not shown) [A-4, 3-(2-hydroxy-4-methoxy-3-(3-methyl-2-butenyl)-phenyl)-3,4-dihydro-5,7-dimethoxy-6-(3-methyl-2-butenyl)-2H-1-benzopyran], the activity at 0.39 µg/mL in the assay on mouse bone marrow cells (setting [1]) is 107%; in the assay with mouse spleen cells (setting [9]), 109%. Also, the activity at 0.78 µg/mL was 107% in the assay with mouse bone marrow cells (setting [2]) and 113% with mouse spleen cells (setting [10]). The activity at 1.56 µg/mL in the assay with mouse bone marrow cells (setting [3]) was 121%; in the assay on mouse spleen cells (setting [11]), 155%. Moreover, the activity at 3.13 µg/mL in the assay with mouse bone marrow cells (setting [4]) turned out to be 132%; in the assay on mouse spleen cells (setting [12]) it was 231%. Also, the activity at 6.25 µg/mL in the assay on mouse bone marrow cells (setting [5]) stood at 133%; in the assay on mouse spleen cells (setting [13]), 375%. In addition, the activity at 12.5 µg/mL with mouse bone marrow cells (setting [6]) stood at 58%. The activity at 0.1 µg/mL in the assay on mouse spleen cells (setting [7]) was determined as 105%. Besides, the activity at 0.2 µg/mL with mouse spleen cells (setting [8]) was found to be 101%.
`COc1cc2c(c(OC)c1CC=C(C)C)CC(c1ccc(O)c(CC=C(C)C)c1OC)CO2` (stereo not shown) [A-5, 3-(4-hydroxy-2-methoxy-3-(3-methyl-2-butenyl)-phenyl)-3,4-dihydro-5,7-dimethoxy-6-(3-methyl-2-butenyl)-2H-1-benzopyran]: the activity at 0.39 µg/mL worked out at 116% with mouse bone marrow cells (setting [1]) and 107% in the assay on mouse spleen cells (setting [9]). The activity at 0.78 µg/mL with mouse bone marrow cells (setting [2]) came to 120%; in the assay with mouse spleen cells (setting [10]) it was 111%. The activity at 1.56 µg/mL in the assay with mouse bone marrow cells (setting [3]) amounted to 138%; with mouse spleen cells (setting [11]), 118%. Moreover, the results for the activity at 3.13 µg/mL with mouse bone marrow cells (setting [4]) and in the assay with mouse spleen cells (setting [12]) were 146% and 209%, respectively. In addition, the activity at 6.25 µg/mL with mouse bone marrow cells (setting [5]) was determined as 55%; in the assay with mouse spleen cells (setting [13]), 239%. Also, the activity at 12.5 µg/mL in the assay with mouse bone marrow cells (setting [6]) was found to be 53%. For the same molecule, in the assay on mouse spleen cells (setting [7]), the activity at 0.1 µg/mL turned out to be 101%. Further, the activity at 0.2 µg/mL in the assay with mouse spleen cells (setting [8]) is 96%.
`COc1ccc(C2COc3cc(O)c(CC=C(C)C)c(OC)c3C2)c(O)c1CC=C(C)C` (stereo not shown) [A-7, 3-(2-hydroxy-4-methoxy-3-(3-methyl-2-butenyl)-phenyl)-3,4-dihydro-5-methoxy-7-hydroxy-6-(3-methyl-2-butenyl)-2H-1-benzopyran]: the activity at 0.39 µg/mL in the assay with mouse bone marrow cells (setting [1]) was 103%; with mouse spleen cells (setting [9]) it was 132%. Moreover, the activity at 0.78 µg/mL in the assay with mouse bone marrow cells (setting [2]) was 112%; in the assay on mouse spleen cells (setting [10]), 161%. The activity at 1.56 µg/mL stood at 139% in the assay with mouse bone marrow cells (setting [3]) and 195% with mouse spleen cells (setting [11]). The figures for the activity at 3.13 µg/mL with mouse bone marrow cells (setting [4]) and in the assay on mouse spleen cells (setting [12]) were 152% and 293%, respectively. In addition, the activity at 6.25 µg/mL turned out to be 51% in the assay on mouse bone marrow cells (setting [5]) and 408% in the assay with mouse spleen cells (setting [13]). In the assay on mouse bone marrow cells (setting [6]), the activity at 12.5 µg/mL was 51%. Also, in the assay on mouse spleen cells (setting [7]), the activity at 0.1 µg/mL was found to be 113%. The activity at 0.2 µg/mL in the assay on mouse spleen cells (setting [8]) is 107%.
